# Results published in patent US20220135591A1, “HETEROCYCLIC COMPOUNDS AS INHIBITORS OF MONOACYLGLYCEROL LIPASE (MAGL)” (Hoffmann-La Roche Inc., priority 2019, published 2022).
# pIC50: −log10 of the molar value.
# Molecular target: T1, MAGL (recombinant wild-type) (Homo sapiens, UniProt Q99685)
# T1 sequence (Q99685 1-303): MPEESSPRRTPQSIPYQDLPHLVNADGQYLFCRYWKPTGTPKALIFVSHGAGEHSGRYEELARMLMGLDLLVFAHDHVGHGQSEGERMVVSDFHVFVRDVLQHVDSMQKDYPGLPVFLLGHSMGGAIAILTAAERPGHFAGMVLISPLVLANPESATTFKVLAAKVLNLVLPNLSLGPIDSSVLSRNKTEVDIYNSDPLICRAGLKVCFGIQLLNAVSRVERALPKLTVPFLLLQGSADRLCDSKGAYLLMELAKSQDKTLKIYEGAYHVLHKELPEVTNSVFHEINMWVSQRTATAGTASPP
# Assay: 4-NPA assay: MAGL inhibitory activity by hydrolysis of 4-nitrophenylacetate, absorbance at 405 nm
# Assay type: biochemical
# Conditions: 4-NPA assay (values without footnote [b])
# Description: Compounds were profiled for MAGL inhibitory activity by measuring the enzymatic activity of MAGL by following the hydrolysis of 4-nitrophenylacetate resulting in 4-nitrophenol, which absorbs at 405-412 nm (G. G. Muccioli, G. Labar, D. M. Lambert, Chem. Bio. Chem. 2008, 9, 2704-2710). This assay is hereinafter abbreviated “4-NPA assay”.
# The assay was carried out in 384 well assay plates (black with clear bottom, non-binding surface treated, Corning Ref. 3655) in a total volume of 40 μL. Compound dilutions were made in 100% DMSO (VWR Chemicals 23500.297) in a polypropylene plate in 3-fold dilution steps to give a final concentration range in the assay from 25 μM to 1.7 nM. 1 μL compound dilutions (100% DMSO) were added to 19 μL MAGL (recombinant wild-type) in assay buffer (50 mM TRIS (GIBCO, 15567-027), 1 mM EDTA (Fluka, 03690-100 mL)). The plate was shaked for 1 min at 2000 rpm (Variomag Teleshake) and then incubated for 15 min at RT. To start the reaction, 20 μL 4-Nitrophenlyacetate (Sigma N-8130) in assay buffer with 6% EtOH was added. The final concentrations in the assay were 1 nM MAGL and 300 μM 4-Nitrophenylacetate. After shaking (1 min, 2000 rpm) and 5 min incubation at RT, the absorbance at 405 nm was measured for a first time (Molecular Devices, SpectraMax Paradigm). A second measurement was then done after incubation for 80 min at RT. From the two measurements, the slope was calculated by subtracting the first from the second measurement.
row,pIC50,SMILES
1,6.44,"Cc1ccc2oc(N3CCN(C(=O)c4ccc(C5(C)COC5)cc4)CC3)nc2n1 [Example 67, (4-(5-methyloxazolo[4,5-b]pyridin-2-yl)piperazin-1-yl)(4-(3-methyloxetan-3-yl)phenyl)methanone]"
2,8.70,"CC(C)(C)Cn1cc(-c2ccc(C(=O)N3CCN(c4nc5nc(Cl)ccc5o4)CC3)cc2)cn1 [Example 19, [4-(5-chlorooxazolo[4,5-b]pyridin-2-yl)piperazin-1-yl]-[4-[1-(2,2-dimethylpropyl)pyrazol-4-yl]phenyl]methanone]"
3,6.78,"Cc1ccc2oc(N3CCN(C(=O)c4cc(OCC5(C)CC5)cc(-c5ccc(CO)cc5)c4)CC3)nc2n1 [Example 188, [3-[4-(hydroxymethyl)phenyl]-5-[(1-methylcyclopropyl)methoxy]phenyl]-[4-(5-methyl-[1,3]oxazolo[4,5-b]pyridin-2-yl)piperazin-1-yl]methanone]"
4,7.62,"Cc1ccc2oc(N3CCN(C(=O)c4ccc(N5CC(OC(C)C(F)(F)F)C5)c(F)c4)CC3)nc2n1 (centres unmarked) [Example 210, (3-fluoro-4-(3-((1,1,1-trifluoropropan-2-yl)oxy)azetidin-1-yl)phenyl)(4-(5-methyloxazolo[4,5-b]pyridin-2-yl)piperazin-1-yl)methanone]"
5,8.22,"CC(C)(C)Cn1cc(-c2ccc(C(=O)N3CCN(c4nc5nc(Cl)ccc5o4)CC3)cc2)nn1 [Example 43, [4-(5-chlorooxazolo[4,5-b]pyridin-2-yl)piperazin-1-yl]-[4-[1-(2,2-dimethylpropyl)triazol-4-yl]phenyl]methanone]"
6,6.39,"Cn1c(CC(C)(C)C)nnc1-c1ccc(C(=O)N2CCN(c3nc4nc(Cl)ccc4o3)CC2)cc1 [Example 73, [4-(5-chlorooxazolo[4,5-b]pyridin-2-yl)piperazin--yl]-[4-[5-(2,2-dimethylpropyl)-4-methyl-1,2,4-triazol-3-yl]phenyl]methanone]"
7,7.52,"C=C(C)Cc1nc(-c2ccc(C(=O)N3CCN(c4nc5nc(Cl)ccc5o4)CC3)cc2)no1 [Example 265, [4-(5-chlorooxazolo[4,5-b]pyridin-2-yl)piperazin-1-yl]-[4-[5-(2-methylallyl)-1,2,4-oxadiazol-3-yl]phenyl]methanone]"
8,7.05,"Cc1ccc2oc(N3CCN(C(=O)c4cnc(N5CC(OC(C)C(F)(F)F)C5)c(F)c4)CC3)nc2n1 (centres unmarked) [Example 224, (5-fluoro-6-(3-((1,1,1-trifluoropropan-2-yl)oxy)azetidin-1-yl)pyridin-3-yl)(4-(5-methyloxazolo[4,5-b]pyridin-2-yl)piperazin-1-yl)methanone]"
9,7.41,"Cc1ccc2oc(N3CCN(C(=O)c4ccc(N5CC(OC(C)C(F)(F)F)C5)cc4)CC3)nc2n1 (centres unmarked) [Example 195, (4-(5-methyloxazolo[4,5-b]pyridin-2-yl)piperazin-1-yl)(4-(3-((1,1,1-trifluoropropan-2-yl)oxy)azetidin-1-yl)phenyl)methanone]"
10,7.57,"Cc1ccc2oc(N3CCN(C(=O)c4ccc(-c5noc(C(C)(C)C)n5)cc4)CC3)nc2n1 [Example 4, (4-(5-(tert-butyl)-1,2,4-oxadiazol-3-yl)phenyl)(4-(5-methyloxazolo[4,5-b]pyridin-2-yl)piperazin-1-yl)methanone]"
11,7.35,"Cc1ccc2oc(N3CCN(C(=O)c4ccc(-c5nc(C(C)(C)C)no5)cc4)CC3)nc2n1 [Example 38, [4-(3-tert-butyl-1,2,4-oxadiazol-5-yl)phenyl]-[4-(5-methyloxazolo[4,5-b]pyridin-2-yl)piperazin-1-yl]methanone]"
12,7.46,"CC(OC1CN(c2ncc(C(=O)N3CCN(c4nc5nc(Cl)ccc5o4)CC3)cc2F)C1)C(F)(F)F (centres unmarked) [Example 229, (4-(5-chlorooxazolo[4,5-b]pyridin-2-yl)piperazin-1-yl)(5-fluoro-6-(3-((1,1,1-trifluoropropan-2-yl)oxy)azetidin-1-yl)pyridin-3-yl)methanone]"
13,7.80,"Cc1ccc2oc(N3CCN(C(=O)c4ccc(N5CC(OC(C)C(F)(F)F)C5)cc4F)CC3)nc2n1 (centres unmarked) [Example 207, (2-fluoro-4-(3-((1,1,1-trifluoropropan-2-yl)oxy)azetidin-1-yl)phenyl)(4-(5-methyloxazolo[4,5-b]pyridin-2-yl)piperazin-1-yl)methanone]"
14,5.63,"Cc1ccc2oc(N3CCN(C(=O)c4ccc5nc(N6CCCC6)oc5c4)CC3)nc2n1 [Example 3, (4-(5-methyloxazolo[4,5-b]pyridin-2-yl)piperazin-1-yl)(2-(pyrrolidin-1-yl)benzo[d]oxazol-6-yl)methanone]"
15,6.61,"CC(C)(C)c1nc(-c2ccc(C(=O)N3CCN(c4nc5nccc(Cl)c5o4)CC3)cc2)no1 [Example 8, (4-(5-(tert-butyl)-1,2,4-oxadiazol-3-yl)phenyl)(4-(7-chlorooxazolo[4,5-b]pyridin-2-yl)piperazin-1-yl)methanone]"
16,8.30,"CCC(C)(C)OC1CN(c2ccc(C(=O)N3CCN(c4nc5nc(Cl)ccc5o4)CC3)cc2)C1 [Example 205, (4-(5-chlorooxazolo[4,5-b]pyridin-2-yl)piperazin-1-yl)(4-(3-(tert-pentyloxy)azetidin-1-yl)phenyl)methanone]"
17,6.95,"Cc1ccc2oc(N3CCN(C(=O)c4cnc(N5CC(OC(C)C(F)(F)F)C5)c(C)c4)CC3)nc2n1 (centres unmarked) [Example 216, (5-methyl-6-(3-((1,1,1-trifluoropropan-2-yl)oxy)azetidin-1-yl)pyridin-3-yl)(4-(5-methyloxazolo[4,5-b]pyridin-2-yl)piperazin-1-yl)methanone]"
18,4.88,"Cc1ccc2oc(N3CCN(C(=O)c4cnc(N5CC6(CCC6(F)F)C5)cc4C)CC3)nc2n1 [Example 221, (6-(5,5-difluoro-2-azaspiro[3.3]heptan-2-yl)-4-methylpyridin-3-yl)(4-(5-methyloxazolo[4,5-b]pyridin-2-yl)piperazin-1-yl)methanone]"
19,7.13,"CC(C)(F)c1nc(-c2ccc(C(=O)N3CCN(c4nc5nc(Cl)ccc5o4)CC3)cc2)no1 [Example 24, [4-(5-chlorooxazolo[4,5-b]pyridin-2-yl)piperazin-1-yl]-[4-[5-(1-fluoro-1-methyl-ethyl)-1,2,4-oxadiazol-3-yl]phenyl]methanone]"
20,7.31,"Cc1ccc2oc(N3CCN(C(=O)c4ccc(-c5noc(C(C)(C)CF)n5)cc4)CC3)nc2n1 [Example 11, (4-(5-(1-fluoro-2-methylpropan-2-yl)-1,2,4-oxadiazol-3-yl)phenyl)(4-(5-methyloxazolo[4,5-b]pyridin-2-yl)piperazin-1-yl)methanone]"
21,6.58,"Cc1ccc2oc(N3CCN(C(=O)c4ccc(-c5noc(C(C)(C)CO)n5)cc4)CC3)nc2n1 [Example 7, (4-(5-(1-hydroxy-2-methylpropan-2-yl)-1,2,4-oxadiazol-3-yl)phenyl)(4-(5-methyloxazolo[4,5-b]pyridin-2-yl)piperazin-1-yl)methanone]"
22,6.31,"Cc1ccc2oc(N3CCN(C(=O)c4ccc(N5CC6(CCCO6)C5)cc4)CC3)nc2n1 [Example 194, (4-(5-oxa-2-azaspiro[3.4]octan-2-yl)phenyl)(4-(5-methyloxazolo[4,5-b]pyridin-2-yl)piperazin-1-yl)methanone]"
23,6.61,"Cc1ccc2oc(N3CCN(C(=O)c4cnc(N5CCC6(C5)CC6(F)F)c(C)c4)CC3)nc2n1 (centres unmarked) [Example 225, (6-(1,1-difluoro-5-azaspiro[2.4]heptan-5-yl)-5-methylpyridin-3-yl)(4-(5-methyloxazolo[4,5-b]pyridin-2-yl)piperazin-1-yl)methanone]"
